Test results reported in patent US7063959B1, “Compositions of the SOC/CRAC calcium channel protein family” (priority 1998, dated 2006).

Tested on: SOC/CRAC calcium channel
Test: Pharmacologic behavior of SOC/CRAC: calcium influx elicited by store depletion (fura-2) in SOC/CRAC-expressing cells
Type: cell-based
Details: SOC/CRAC expressed in RBL-2H3 mast cells by recombinant vaccinia virus; stores depleted with thapsigargin; cells pre-incubated with reagent; effect substantially the same as on endogenous thapsigargin-dependent calcium influx

**Q.** With `CCCCCCCCCCCCC/C=C/[C@@H](O)[C@@H](N)CO` [sphingosine, Sphingosine] as the compound, how does the SOC/CRAC-enhanced calcium influx read?
**A.** inhibited
